Experiments:
Format in all cases: cell-based, human
explanted skin tissue = assay: Skin explant assay, hematoxylin and eosin histology; details: skin explants, 0.025 weight percent, administered days 0, 1, 2, 5, 7; nine days in culture; vs vehicle control; FIG. 1B
Procedure: (§1) Samples of explanted skin tissue were obtained from an abdominal plasty of a person. Samples (33 samples in total) were maintained in tissue culture medium at 37° C. in a humid, 5%-CO2 atmosphere for the duration of the study.
(§2) The skin tissue explants were then distributed into appropriate controls or treated samples in triplicates. The controls received only a vehicle, and the treatment samples received 0.025 weight percent of Analog A disclosed above. The vehicle and Analog A were administered to the controls and treatment samples, respectively, on days 0, 1, 2, 5, and 7.
(§3) After nine days in culture the vehicle and Analog A treated samples were collected and processed for histology and immunostaining Initially, the samples were fixed in buffered formalin for 24 hours. […] Tissue samples were also stained for procollagen I using a Procollagen I rat monoclonal antibody with streptavidin alkaline phosphatase conjugate (Vectastain, Vector labs) and Vector® blue substrate detection system (Vector Laboratories LTD., Peterborough, UK), and hyaluronic acid using biotinylated affinity purified Hyaluronic Acid Binding Protein ((bovine nasal cartilage) Calbiochem, EMD Chemicals USA) and detected using the aforementioned detection system […]

Hyaluronic Acid = assay: Skin explant assay, Hyaluronic Acid Binding Protein staining; details: skin explants, 0.025 weight percent, nine days in culture; FIGS. 2A and 2B
Procedure: as §1, §2, §3

Procollagen 1 = assay: Skin explant assay, procollagen I immunostaining; details: skin explants, 0.025 weight percent, nine days in culture; FIGS. 3A and 3B
Procedure: as §1, §2, §3

- expression of Hyaluronic Acid in comparison to the vehicle control (Hyaluronic Acid): increased
SMILES: Cc1cccc(-n2nc(C(C)(C)C)cc2NC(=O)CCCC(=O)NC(C)C(C)C)c1 (stereo not shown) [Analog A]
- cell density throughout the basal epidermis (hematoxylin and eosin stain) (explanted skin tissue): maintained their cell density throughout the basal epidermis
- contact with the basal layer (hematoxylin and eosin stain) (explanted skin tissue): good contact with the basal layer
- expression of Procollagen 1 in comparison to the vehicle control (Procollagen 1): increased
